Measured values: the supplement of paper PMC8617591

What was measured:
[1] = system: Mycobacterium tuberculosis Erdman (autoluminescent); test: total FIC50 (Loewe) at 50% inhibition, three-drug combination (log2); higher = more antagonistic
Procedure: (§1)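 DiaMOND equipotent three-drug combination dose responses (10 doses, 1.5- or 2-fold spacing, centred on IC90) against autoluminescent M. tuberculosis Erdman in 8 in vitro models. Read-out is OD600, or luminescence for the intracellular and dormancy models, normalised to untreated wells. Hill-fit Einf, AUC25 and GRinf are potency metrics; FIC50 and FIC90 are total Loewe fractional inhibitory concentrations as log2 (negative = synergy).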

[2] = system: Mycobacterium tuberculosis Erdman (autoluminescent); test: total FIC90 (Loewe) at 90% inhibition, three-drug combination (log2); higher = more antagonistic
Procedure: as §1

[3] = system: Mycobacterium tuberculosis Erdman (autoluminescent); test: Einf, fitted maximum growth inhibition of three-drug combination (fraction); higher = stronger maximal inhibition
Procedure: as §1

[4] = system: Mycobacterium tuberculosis Erdman (autoluminescent); test: AUC25, normalised area under dose response up to IC25 (three-drug combination) (fraction (0-1)); higher = more potent at low dose
Procedure: as §1

[5] = system: Mycobacterium tuberculosis Erdman (autoluminescent); test: GRinf, maximum normalised growth rate inhibition (three-drug combination) (unitless (-1 to 1)); higher = less effect (negative = killing)
Procedure: as §1

CC(C)/N=c1\cc2n(-c3ccc(Cl)cc3)c3ccccc3nc-2cc1Nc1ccc(Cl)cc1 [clofazimine] + CO[C@H]1/C=C/O[C@@]2(C)Oc3c(C)c(O)c4c(O)c(c(/C=N/N5CCN(C6CCCC6)CC5)c(O)c4c3C2=O)NC(=O)/C(C)=C\C=C\[C@H](C)[C@H](O)[C@@H](C)[C@@H](O)[C@@H](C)[C@H](OC(C)=O)[C@@H]1C [rifapentine] + CO[C@H]1/C=C/O[C@@]2(C)Oc3c(C)c(O)c4c(O)c(c(/C=N/N5CCN(C)CC5)c(O)c4c3C2=O)NC(=O)/C(C)=C\C=C\[C@H](C)[C@H](O)[C@@H](C)[C@@H](O)[C@@H](C)[C@H](OC(C)=O)[C@@H]1C [rifampicin]
Details	AUC25, [4]	Einf, [3]	GRinf, [5]	total FIC50, [1]	total FIC90, [2]
in vitro model: acidic pH 5.7, time point: constant (~7 days, model-specific)	0.0846	0.855	-0.0603	0.102	–
in vitro model: acidic pH 5.7, time point: terminal (~4-5 doublings, model-specific)	0.076	0.975	-0.1	0.133	-0.159
in vitro model: intracellular J774, time point: constant = terminal	–	0.956	-0.293	–	0.0463

Details	AUC25, [4]	Einf, [3]	GRinf, [5]	total FIC50, [1]	total FIC90, [2]
in vitro model: butyrate, time point: constant (~7 days, model-specific)	0.115	0.935	-0.0887	0.282	0.128
in vitro model: butyrate, time point: terminal (~4-5 doublings, model-specific)	0.0924	0.967	-0.0699	0.19	0.285
in vitro model: cholesterol 0.05 mM, time point: constant (~7 days, model-specific)	0.13	0.619	-0.094	0.554	–
in vitro model: cholesterol 0.05 mM, time point: terminal (~4-5 doublings, model-specific)	0.098	0.865	0.0942	1.05	0.206
in vitro model: cholesterol-high 0.2 mM, time point: constant (~7 days, model-specific)	0.105	0.887	-0.333	0.692	–
in vitro model: cholesterol-high 0.2 mM, time point: terminal (~4-5 doublings, model-specific)	0.0914	0.999	-0.983	0.952	0.73
in vitro model: dormancy (butyrate + nitrate, low O2), time point: constant (~7 days, model-specific)	0.0771	0.965	0.0628	0.158	-0.937
in vitro model: dormancy (butyrate + nitrate, low O2), time point: terminal (~4-5 doublings, model-specific)	0.067	0.994	-0.464	-0.183	0.154
in vitro model: standard 7H9 glycerol, time point: constant = terminal	0.0923	0.907	0.0923	0.00896	1.54
in vitro model: valerate, time point: constant (~7 days, model-specific)	0.0792	0.861	0.00522	0.944	–
in vitro model: valerate, time point: terminal (~4-5 doublings, model-specific)	0.0548	0.925	0.043	0.559	0.577

CC(C)/N=c1\cc2n(-c3ccc(Cl)cc3)c3ccccc3nc-2cc1Nc1ccc(Cl)cc1 [clofazimine] + COc1c(N2C[C@@H]3CCCN[C@@H]3C2)c(F)cc2c(=O)c(C(=O)O)cn(C3CC3)c12 [moxifloxacin] + CO[C@H]1/C=C/O[C@@]2(C)Oc3c(C)c(O)c4c(O)c(c(/C=N/N5CCN(C6CCCC6)CC5)c(O)c4c3C2=O)NC(=O)/C(C)=C\C=C\[C@H](C)[C@H](O)[C@@H](C)[C@@H](O)[C@@H](C)[C@H](OC(C)=O)[C@@H]1C [rifapentine]
Details	AUC25, [4]	Einf, [3]	GRinf, [5]	total FIC50, [1]	total FIC90, [2]
in vitro model: acidic pH 5.7, time point: constant (~7 days, model-specific)	0.0597	0.791	0.0664	0.757	–
in vitro model: acidic pH 5.7, time point: terminal (~4-5 doublings, model-specific)	0.0785	0.994	-0.157	0.662	0.776
in vitro model: intracellular J774, time point: constant = terminal	–	0.896	-0.177	–	0.705

Details	AUC25, [4]	Einf, [3]	GRinf, [5]	total FIC50, [1]	total FIC90, [2]
in vitro model: butyrate, time point: constant (~7 days, model-specific)	0.109	0.951	-0.179	0.683	0.815
in vitro model: butyrate, time point: terminal (~4-5 doublings, model-specific)	0.0865	0.976	-0.126	0.677	0.878
in vitro model: cholesterol 0.05 mM, time point: constant (~7 days, model-specific)	0.117	0.651	-0.0835	0.506	–
in vitro model: cholesterol 0.05 mM, time point: terminal (~4-5 doublings, model-specific)	0.106	0.826	0.0322	1.24	0.476
in vitro model: cholesterol-high 0.2 mM, time point: constant (~7 days, model-specific)	0.122	0.933	-0.651	0.36	0.939
in vitro model: cholesterol-high 0.2 mM, time point: terminal (~4-5 doublings, model-specific)	0.0999	1	-0.936	0.593	0.687
in vitro model: dormancy (butyrate + nitrate, low O2), time point: constant (~7 days, model-specific)	0.0884	0.916	0.189	0.695	0.16
in vitro model: dormancy (butyrate + nitrate, low O2), time point: terminal (~4-5 doublings, model-specific)	0.0815	0.985	-0.35	0.807	1.55
in vitro model: standard 7H9 glycerol, time point: constant = terminal	0.11	0.961	-0.153	0.103	0.69
in vitro model: valerate, time point: constant (~7 days, model-specific)	0.121	0.922	-0.0961	0.866	–
in vitro model: valerate, time point: terminal (~4-5 doublings, model-specific)	0.0636	0.937	0.0037	0.401	0.131

CC(C)/N=c1\cc2n(-c3ccc(Cl)cc3)c3ccccc3nc-2cc1Nc1ccc(Cl)cc1 [clofazimine] + COc1c(N2C[C@@H]3CCCN[C@@H]3C2)c(F)cc2c(=O)c(C(=O)O)cn(C3CC3)c12 [moxifloxacin] + CO[C@H]1/C=C/O[C@@]2(C)Oc3c(C)c(O)c4c(O)c(c(/C=N/N5CCN(C)CC5)c(O)c4c3C2=O)NC(=O)/C(C)=C\C=C\[C@H](C)[C@H](O)[C@@H](C)[C@@H](O)[C@@H](C)[C@H](OC(C)=O)[C@@H]1C [rifampicin]
Details	AUC25, [4]	Einf, [3]	GRinf, [5]	total FIC50, [1]	total FIC90, [2]
in vitro model: acidic pH 5.7, time point: constant (~7 days, model-specific)	0.0543	0.794	0.0586	0.584	–
in vitro model: acidic pH 5.7, time point: terminal (~4-5 doublings, model-specific)	0.0718	0.984	-0.141	0.552	0.413
in vitro model: intracellular J774, time point: constant = terminal	–	0.971	-0.31	–	0.881

Details	AUC25, [4]	Einf, [3]	GRinf, [5]	total FIC50, [1]	total FIC90, [2]
in vitro model: butyrate, time point: constant (~7 days, model-specific)	0.118	0.961	-0.195	0.632	0.476
in vitro model: butyrate, time point: terminal (~4-5 doublings, model-specific)	0.0964	0.979	-0.129	0.441	0.673
in vitro model: cholesterol 0.05 mM, time point: constant (~7 days, model-specific)	0.111	0.622	0.0422	1.52	–
in vitro model: cholesterol 0.05 mM, time point: terminal (~4-5 doublings, model-specific)	0.0951	0.89	-0.0588	1.22	-0.407
in vitro model: cholesterol-high 0.2 mM, time point: constant (~7 days, model-specific)	0.119	0.887	-0.695	1.08	1.19
in vitro model: cholesterol-high 0.2 mM, time point: terminal (~4-5 doublings, model-specific)	0.0965	1	-1	1.33	1.21
in vitro model: dormancy (butyrate + nitrate, low O2), time point: constant (~7 days, model-specific)	0.0851	0.924	0.135	0.282	-0.619
in vitro model: dormancy (butyrate + nitrate, low O2), time point: terminal (~4-5 doublings, model-specific)	0.108	0.991	-0.361	-0.142	1.27
in vitro model: standard 7H9 glycerol, time point: constant = terminal	0.128	0.975	-0.0863	-0.17	–
in vitro model: valerate, time point: constant (~7 days, model-specific)	0.104	0.907	-0.0605	1.12	–
in vitro model: valerate, time point: terminal (~4-5 doublings, model-specific)	0.075	0.948	0.0195	0.91	1.97
